Test systems include DMS-114; DMS-273; KM-20L2; LXFL 529; SNB-78; HOP-18; RXF 631; Hs-578T; MDA-N.
Common to all, as to experiment: DTP human tumour cell line panel, 48 h

The structures appear in SMILES notation.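 Following 48 hours of exposure in 96-well plates, responses at five concentrations were used to interpolate endpoints linearly. Here, GI50 denotes the concentration required for 50% inhibition of growth.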 The source made the active and inactive calls. Cut-off read from the data, not from the text of the source: active = GI50 up to about 1.1 µM and inactive = higher.

For orientation: GI50 means the concentration at which growth is held to half of that of the control. Consider `O=C(c1ccccc1)c1c(CC(O)c2ccccn2)n(C(=O)c2ccccc2)c2ccccc12` (configuration not stated), for which the GI50 in the test with DMS-114 is 22 µM (inactive); in the test on DMS-273, 23.6 µM (inactive); in the test with KM-20L2, 18.5 µM (inactive); in the test on LXFL 529 it was 28.5 µM (inactive).
Regarding `CCOC(=O)CSc1cc[nH]c(=O)n1`, the GI50 in the test with DMS-114, in the test with DMS-273, in the test with KM-20L2, in the test on LXFL 529 and in the test with SNB-78 was > 100 µM (inactive) throughout.
Regarding `Cc1c[n+]2c3ccccc3c3ccccc3c2s1.[O-][Cl+3]([O-])([O-])[O-]`, the GI50 is 2.61 µM (inactive) in the test with DMS-114; 40.2 µM (inactive) in the test on HOP-18; 5.3 µM (inactive) with DMS-273; 1.33 µM (inactive) with KM-20L2; 3.16 µM (inactive) in the test on LXFL 529; 0.721 µM (active) in the test with SNB-78.
For `COc1ccc(/C=N/C23CC4CC(CC(C4)C2)C3)cc1`, the GI50 with DMS-114 is > 100 µM (inactive); with DMS-273, > 10 µM (inactive); with KM-20L2, > 100 µM (inactive); with SNB-78, > 100 µM (inactive).
For the compound `C=C1C[C@]23C[C@@]1(O)CC[C@H]2[C@@]12C=C[C@H](O)[C@@](C)(C(=O)O1)[C@H]2[C@@H]3C(=O)O` [GIBBERELLIN A3], the GI50 in the test on DMS-114, in the test on DMS-273, in the test on KM-20L2 and with SNB-78 was > 100 µM (inactive) in each case.
With `COc1ccc2c(C3(O)CCNCC3)c[nH]c2c1`, the GI50 in the test with RXF 631, in the test on HOP-18, with DMS-273, in the test with KM-20L2 and with LXFL 529 was > 100 µM (inactive) in each case.
Take `CCCCCCCCCCCCCCCC(=O)OCC1OC(OC)C2NP(=O)(N(CCCl)CCCl)OC1C2O` (configuration not stated): the GI50 in the test on DMS-114 is 1.54 µM (inactive); in the test on RXF 631, 6.89 µM (inactive); in the test with HOP-18 it was 8.53 µM (inactive); with DMS-273 it was 0.152 µM (active); with KM-20L2, 15.8 µM (inactive); in the test with LXFL 529, 2.43 µM (inactive). Besides, the GI50 in the test on SNB-78 was 3.3 µM (inactive).
Take `CCOC(=O)NN1C(=O)C(=P(c2ccccc2)(c2ccccc2)c2ccccc2)C(C(=O)OC)=C1C`: the GI50 with DMS-114, with HOP-18, with DMS-273, with KM-20L2, in the test with LXFL 529 and with SNB-78 was > 100 µM (inactive) throughout.
Take `C1CCN2CC3CONC3C2C1` (configuration not stated): the GI50 in the test with DMS-114, with DMS-273, in the test on KM-20L2, in the test with LXFL 529 and in the test on SNB-78 was > 100 µM (inactive) each time.
Turning to `C/C(CC(=O)Nc1ccc(C)c(C)c1)=N\N(c1ccccc1)c1ccccc1`, the GI50 in the test with DMS-114 was 18.3 µM (inactive); with HOP-18, > 100 µM (inactive); with DMS-273, 17.6 µM (inactive); with KM-20L2 it was 13.3 µM (inactive); in the test with LXFL 529, 64.1 µM (inactive); in the test with SNB-78, > 100 µM (inactive).
On to `COc1ccc(C2=Nc3ccccc3SC(C)C2)cc1OC` (configuration not stated), for which the GI50 is 19.4 µM (inactive) in the test on DMS-114; 42.2 µM (inactive) in the test with RXF 631; > 10 µM (inactive) with HOP-18; 16.7 µM (inactive) with DMS-273; 18.8 µM (inactive) in the test with KM-20L2; 17.4 µM (inactive) with LXFL 529. In addition, the GI50 in the test with SNB-78 was 27.4 µM (inactive).
Regarding `CCOc1ccc(NC(=O)/C(=C\c2ccc(C)cc2)C(C)=O)cc1`, the GI50 in the test on DMS-114, in the test with RXF 631, in the test with HOP-18, in the test with DMS-273, in the test with KM-20L2 and with LXFL 529 was > 100 µM (inactive) in each case. Besides, the GI50 in the test with SNB-78 was > 100 µM (inactive).
Regarding `COc1ccc2c(=O)c(C)c(-c3ccccc3)oc2c1CN(C)C` [DIMEFLINE], the GI50 is > 100 µM (inactive) in the test with HOP-18; > 100 µM (inactive) in the test with DMS-273; 97.7 µM (inactive) in the test with KM-20L2; > 100 µM (inactive) with LXFL 529; > 100 µM (inactive) with SNB-78.
On to `CCCCCCCCCCOC(=O)c1cc[n+](C)cc1`, for which the GI50 in the test with DMS-114 is 18 µM (inactive); in the test with HOP-18, 42.7 µM (inactive); with DMS-273 it was 17.3 µM (inactive); with LXFL 529, 16.3 µM (inactive); with SNB-78, 17.9 µM (inactive).
`CCCCCCCCCCCc1noc2c1C(=O)C(O)CC2` (configuration not stated): the GI50 in the test on RXF 631 was 17.6 µM (inactive); in the test with DMS-273, 16.8 µM (inactive); in the test on KM-20L2, 17.2 µM (inactive); in the test with LXFL 529 it was 16.6 µM (inactive); in the test with SNB-78, 24.4 µM (inactive).
`COC(=O)N(C(=O)OC)C(C(=O)O)C(C)C` (configuration not stated): the GI50 in the test on DMS-114, with HOP-18, in the test on DMS-273, in the test on KM-20L2, in the test on LXFL 529 and in the test on SNB-78 was > 100 µM (inactive) each time.
Turning to `O=C1Nc2ccc(Br)cc2/C1=N/Nc1ccc([N+](=O)[O-])cc1[N+](=O)[O-]`, the GI50 with HOP-18 is 1.12 µM (inactive); in the test on KM-20L2, 3.14 µM (inactive); in the test with LXFL 529 it was 3.66 µM (inactive); in the test with SNB-78, 4.51 µM (inactive).
As for `Cn1cc(-c2ccc3c4ccccc4n(C)c3c2)c2ccccc21`, the GI50 in the test with DMS-114, in the test on HOP-18, in the test with KM-20L2, in the test on LXFL 529 and with SNB-78 was > 100 µM (inactive) each time.
For `CC1CC(=O)C2CC(CO)=CCCC2C1(C)CC/C(=C/CO)CO` (configuration not stated), the GI50 with DMS-114, in the test with HOP-18, with DMS-273, with LXFL 529 and in the test on SNB-78 was > 100 µM (inactive) in each case.
As for `NC(CCc1ncc(C(=O)O)s1)C(=O)O` (configuration not stated), the GI50 in the test on DMS-114, with RXF 631, in the test on HOP-18, with LXFL 529 and with SNB-78 was > 100 µM (inactive) in each case.
In the case of `CCCCNC(=O)OCC(COc1ccccc1OC)OC(=O)NCCCC` (configuration not stated), the GI50 with DMS-114 was 78.7 µM (inactive); with RXF 631, > 100 µM (inactive); in the test with HOP-18, 39.5 µM (inactive); in the test with DMS-273 it was > 100 µM (inactive); with KM-20L2 it was > 100 µM (inactive); in the test on LXFL 529, > 100 µM (inactive). Further, the GI50 in the test with SNB-78 is > 100 µM (inactive).
For `NCc1cccc(O)c1O`, the GI50 in the test on DMS-114, in the test with RXF 631, in the test on HOP-18, in the test with DMS-273, with KM-20L2 and in the test on LXFL 529 was > 100 µM (inactive) in each case. The GI50 in the test on SNB-78 is > 100 µM (inactive).
With `O=C(/C(=N/Nc1ccccc1)c1ccc([N+](=O)[O-])cc1)c1ccc([N+](=O)[O-])cc1`, the GI50 in the test with DMS-114, in the test with HOP-18, in the test with DMS-273, with KM-20L2, in the test on LXFL 529 and in the test on SNB-78 was > 100 µM (inactive) each time.
As to `CS(=O)(=O)NNS(=O)(=O)c1cccc([N+](=O)[O-])c1`, the GI50 in the test with DMS-114, in the test on RXF 631, in the test on DMS-273, in the test with KM-20L2 and with LXFL 529 was > 100 µM (inactive) each time.
As to `COC(OC)c1cccc2c1C(=O)CCC1(O)c3ccccc3C1C2` (configuration not stated), the GI50 was 39.1 µM (inactive) in the test on DMS-114; 91.6 µM (inactive) in the test with HOP-18; > 100 µM (inactive) in the test with DMS-273; 86.3 µM (inactive) in the test with LXFL 529; > 100 µM (inactive) with SNB-78.
Consider `COc1ccccc1C(=O)Nc1ccc(Cl)c(C(=O)OC(C)C)c1`, for which the GI50 is 19 µM (inactive) in the test with DMS-114; 41.1 µM (inactive) in the test with RXF 631; > 100 µM (inactive) in the test with Hs-578T; > 100 µM (inactive) with HOP-18; 35.3 µM (inactive) in the test with DMS-273; 31.1 µM (inactive) in the test on MDA-N. Besides, the values for the GI50 in the test with KM-20L2 and in the test on SNB-78 were 28.6 µM (inactive) and 42 µM (inactive), respectively.
Turning to `O=c1c2cc(Br)ccc2nc(CNc2ccccc2)n1-c1ccccc1`, the GI50 was 11.5 µM (inactive) in the test on DMS-114; 36.7 µM (inactive) with HOP-18; 25.8 µM (inactive) in the test on DMS-273; 59 µM (inactive) with KM-20L2; 14.9 µM (inactive) with LXFL 529; 21.1 µM (inactive) in the test with SNB-78.
`CC(=O)OC1COC(n2c(=S)n(-c3ccccc3)c(=O)c3cc(Br)ccc32)C(OC(C)=O)C1OC(C)=O` (configuration not stated): the GI50 in the test on DMS-114 was 51.6 µM (inactive); in the test with HOP-18, > 100 µM (inactive); in the test on DMS-273, 45.8 µM (inactive); in the test with KM-20L2, > 100 µM (inactive); in the test with LXFL 529 it was 27 µM (inactive); in the test on SNB-78, 29 µM (inactive).
On to `Cc1cccc(NC(=O)/C=C/c2ccc(N(CCC#N)CCC#N)cc2C)c1`, for which the GI50 in the test with DMS-114 was 49.9 µM (inactive); in the test with RXF 631, > 100 µM (inactive); with DMS-273 it was > 100 µM (inactive); in the test with KM-20L2, > 100 µM (inactive); with LXFL 529, 23.4 µM (inactive).
Consider `[N-]=[N+]=NC(c1cn(C2CC(O)C(CO)O2)c(=O)[nH]c1=O)C(Br)I` (configuration not stated), for which the GI50 with DMS-114, in the test on DMS-273, in the test on KM-20L2, with LXFL 529 and in the test on SNB-78 was > 100 µM (inactive) in each case.
`O=c1c2cccnc2ncn1CCN1CCCC1`: the GI50 in the test on DMS-114, in the test with DMS-273, in the test on KM-20L2, in the test with LXFL 529 and in the test with SNB-78 was > 100 µM (inactive) each time.
Take `C[C@]12CCC3c4ccc(OC(=O)c5ccccc5)cc4CC[C@H]3C1CC[C@@H]2OC(=O)C12OC1CCC2=O` (some centres not stated): the GI50 in the test with DMS-114 was 2.6 µM (inactive); in the test on HOP-18 it was 5.71 µM (inactive); in the test on DMS-273, 5.01 µM (inactive); with KM-20L2, 5.89 µM (inactive); in the test on LXFL 529, 1.91 µM (inactive); in the test with SNB-78, 6.34 µM (inactive).

(Values after ChEMBL document CHEMBL1201862, “PubChem BioAssay data set” (2004).)
